Data published in US6696249B1, “Method for screening for inhibitors and activators of type III secretion machinery in gram-negative bacteria” (priority 1998, dated 2004).

Legend:
[1] = tested on: ipaH4.5-lacZ fusion; assay: ipaH4.5-lacZ transcriptional fusion, β-galactosidase activity in vitro; type: cell-based, Shigella flexneri; settings: ipaD+ strain
[2] = tested on: Secretion of IpaB and IpaC; settings: Parsot et al, 1995; cited from earlier work
[3] = tested on: icsB-lacZ fusion; assay: icsB-lacZ transcriptional fusion, β-galactosidase activity in vitro; type: cell-based, Shigella flexneri
[4] = tested on: ipaH9.8-, ipaH7.8-, ipaH4.5-, and ipaH1.4-lacZ fusions; assay: ipaH-lacZ fusions taken together, β-galactosidase activity in vitro; type: cell-based, Shigella flexneri; settings: 100 μg/ml of Congo red
[5] = tested on: mxiD-lacZ fusion; assay: mxiD-lacZ transcriptional fusion, β-galactosidase activity in vitro; type: cell-based, Shigella flexneri
[6] = tested on: virA-lacZ mxiD; assay: virA-lacZ transcriptional fusion in mxiD (secretion deficient) strain SF1012, β-galactosidase activity in vitro; type: cell-based, Shigella flexneri
Experimental: (§1) All Shigella flexneri strains identified in Table I are derivatives of the wild-type strain M90T (Sansonetti et al., 1982). Bacteria were grown in Luria-Bertani (LB) medium or tryptic soy (TCS) broth. Antibiotics were used at the following concentrations: ampicillin, 100 μg/ml; kanamycin, 30 μg/ml; and streptomycin, 100 μg/ml. Congo red (SERVA, Heidelberg, Germany) was used to induce secretion by bacteria growing in LB medium.
To determine whether regulation of virA transcription was dependent on the type III secretion machinery, we compared the β-galactosidase activities produced by the virA-lacZ fusion in derivatives of wild-type (SF1001) and mxiD (SF1012) strains during growth in the presence of Congo red and we compared the production of VirA in ipaD and mxiD ipaD strains.
(§2) To investigate kinetics of activation of the virA promoter, Congo red (100 μg/ml) was added to the growth medium during the exponential phase of growth of derivatives of the wild-type and mxiD strains carrying the virA-lacZ fusion. Samples were then collected at 5 min intervals and assayed for β-galactosidase activity.
(§3) The β-galactosidase activity present in bacteria growing in laboratory media was assayed by using the substrate o-nitro-phenyl-β-D-galactoside (ONPG) as described (Platt et al, 1972). The β-galactosidase activity present in intracellular bacteria was assayed by using the substrate 4-methyl-umbelliferyl-β-D-galactoside (MUG) as described (Klarsfeld et al., 1994). Fluorescence was measured by using a Dynatec apparatus, with 365 nm excitation and 450 nm emission wavelengths. Activities were computed as fluorescence units per hour per bacterium; four fluorescence units were equivalent to one Miller unit and all results are presented in Miller units.

[7] = tested on: ipaH9.8-lacZ fusion; assay: ipaH9.8-lacZ transcriptional fusion, β-galactosidase activity in vitro; type: cell-based, Shigella flexneri; settings: ipaD+ strain
[8] = tested on: ipaH7.8-lacZ fusion; assay: ipaH7.8-lacZ transcriptional fusion, β-galactosidase activity in vitro; type: cell-based, Shigella flexneri; settings: ipaD+ strain
[9] = tested on: virA-lacZ fusion; type: cell-based, Shigella flexneri
Experimental: as §1
Secretion of IpaB and IpaC is enhanced when bacteria grow in the presence of Congo red (Parsot et al, 1995). To investigate the effect of Congo red on virA transcription, we assayed the β-galactosidase activity in strain SF1001 (virA-lacZ ipaD^+) after growth in the presence of various concentrations of Congo red.
as §2, §3

[10] = tested on: icsB-, ipaA-, ipgD-, and mxiD-lacZ fusions; assay: entry region lacZ fusions taken together, transcription in vitro; type: cell-based, Shigella flexneri; settings: Congo red in the growth medium
[11] = tested on: ipaH1.4-lacZ fusion; assay: ipaH1.4-lacZ transcriptional fusion, β-galactosidase activity in vitro; type: cell-based, Shigella flexneri; settings: ipaD+ strain
[12] = tested on: ipaA-lacZ fusion; assay: ipaA-lacZ transcriptional fusion, β-galactosidase activity in vitro; type: cell-based, Shigella flexneri
[13] = tested on: ipgD-lacZ fusion; assay: ipgD-lacZ transcriptional fusion, β-galactosidase activity in vitro; type: cell-based, Shigella flexneri
[14] = ipaD+ strain grown in presence of Congo red

## Nc1c(/N=N/c2ccc(-c3ccc(/N=N/c4cc(S(=O)(=O)O)c5ccccc5c4N)cc3)cc2)cc(S(=O)(=O)O)c2ccccc12 [Congo red]
[1]
  Ratio li: activity with Congo red versus without Congo red: 3.5
[1]; 100 μg/ml Congo red
  β-galactosidase activity, ipaD+ + CR: 110 Miller units
[2]
  Secretion of IpaB and IpaC when bacteria grow in the presence of Congo red: enhanced
[3]; ipaD+ strain
  Ratio li: activity with Congo red versus without Congo red: 1.0
[3]; [14]
  β-galactosidase activity, ipaD+ + CR: 285 Miller units
[4]
  Times more β-galactosidase activity after growth with Congo red: 3-12 times
[5]; ipaD+ strain
  Ratio li: activity with Congo red versus without Congo red: 1.2
[5]; [14]
  β-galactosidase activity, ipaD+ + CR: 320 Miller units
[6]; mxiD mutant derivative, Congo red 100 μg/ml added in exponential phase
  Transcriptional activation of the virA-lacZ fusion after addition of the dye: no transcriptional activation
[6]; mxiD strain carrying virA-lacZ, Congo red in growth medium
  Increase in β-galactosidase activity on growth with Congo red: did not lead to an increase
[6]; virA-lacZ mxiD strain
  Ratio li: activity with Congo red versus without Congo red: 1.1
[6]; virA-lacZ mxiD strain grown in presence of Congo red
  β-galactosidase activity, ipaD+ + CR: 18 Miller units
[7]
  Ratio li: activity with Congo red versus without Congo red: 12
[7]; 100 μg/ml Congo red
  β-galactosidase activity, ipaD+ + CR: 325 Miller units
[8]
  Ratio li: activity with Congo red versus without Congo red: 12
[8]; 100 μg/ml Congo red
  β-galactosidase activity, ipaD+ + CR: 235 Miller units
[9]
  Concentration of Congo red at which virA-lacZ transcription reaches a plateau: about 100 μg/ml
[9]; SF1001, concentrations of dye up to 20 μg/ml
  Transcription of the virA-lacZ fusion at low dye concentrations: low
[9]; virA-lacZ, ipaD+ strain
  Ratio li: activity with Congo red versus without Congo red: 17
[9]; virA-lacZ, ipaD+ strain grown in presence of 100 μg/ml Congo red, mean of at least three experiments
  β-galactosidase activity, ipaD+ + CR: 280 Miller units
[9]; wild-type derivative, Congo red 100 μg/ml added in exponential phase, samples at 5 min intervals
  Time after addition of the dye at which an increase in β-galactosidase specific activity was detected: 10 min
[10]
  Effect of Congo red in growth medium on transcription: not affected
[11]
  Ratio li: activity with Congo red versus without Congo red: 5.1
[11]; 100 μg/ml Congo red
  β-galactosidase activity, ipaD+ + CR: 270 Miller units
[12]; ipaD+ strain
  Ratio li: activity with Congo red versus without Congo red: 0.8
[12]; [14]
  β-galactosidase activity, ipaD+ + CR: 390 Miller units
[13]; ipaD+ strain
  Ratio li: activity with Congo red versus without Congo red: 1.1
[13]; [14]
  β-galactosidase activity, ipaD+ + CR: 475 Miller units
